Measurements: patent US12453731B2, “Aniline-based WDR5 protein-protein interaction inhibitor, and preparation method and use thereof” (CHINA PHARMACEUTICAL UNIVERSITY, priority 2019, dated 2025)

Legend:
[1] = test system: methylation level of H3K4; assay: inhibition of the methylation level of H3K4 (methyltransferase activity); type: biochemical
[2] = test system: Molm-13 human acute myeloid leukemia cells; assay: anti-proliferative activity against leukemia cells Molm-13; type: cell-based; settings: Homo sapiens, MOLM-13, Molm-13 cells
Excerpt: (§1) Some compounds of the present disclosure have also been tested for the antiproliferative activity against leukemia cells.

[3] = test system: MV4-11 human acute mononuclear leukemia cells; assay: anti-proliferative activity against leukemia cells MV4-11; type: cell-based; settings: Homo sapiens, MV4-11, MV4-11 cells; read-out: GI50 (MV-411)
Excerpt: as §1

MLL1-WDR5 PPI = MLL1-WDR5 PPI (Homo sapiens (Human), UniProt P61964); assay: fluorescent probe assay of MLL1-WDR5 protein-protein interaction inhibition; type: binding; settings: fluorescent probe based on MLL1 peptide, incubation 0.5 hrs, read-out: MLL1-WDR5 PPI inhibiting activity IC50
Protocol: In the present disclosure, a fluorescent molecular probe was constructed based on a MLL1 peptide fragment binding to WDR5, for use as a method for study on an aniline compound interfering with WDR5 protein-protein interaction, to determine an inhibition rate of the aniline compound at various concentrations, and then compute the IC50 value. Specific experimental steps: 20 μL of WDR5 protein, 20 μL of a fluorescent probe, and 20 μL of a compound of different concentration gradients were added to a 384-well plate respectively. After incubation for 0.5 hrs, the fluorescence was read on a multifunctional microplate reader at an excitation wavelength of 485 nm and an emission wavelength of 535 nm, to compute the mP value. The inhibition rate was computed as per the formula below, and then the IC50 value was computed using GraphPad software.

SMILES | Whether the methylation level of H3K4 was inhibited [1] | GI50 [2] [µM] | GI50 [3] [µM] | IC50 (MLL1-WDR5 PPI) [µM]
CC(C)NC(=O)c1ccc(-c2ccc(N3CCN(C)CC3)c(Nc3ncnc(Cl)c3N)c2)cc1 [Example 31, 3″-((5-amino-6-chloropyrimidin-4-yl)amino)-N-isopropyl-4″-(4-methylpiperazin-1-yl)-[1,1′-biphenyl]-4-carboxamide] | Yes | 18.8 | 10.5 | 0.46
CN1CCN(c2ccc(-c3ccc(N)cc3)cc2Nc2ncnc(Cl)c2N)CC1 [Example 32, N^4-(4′-amino-4-(4-methylpiperazin-1-yl)-[1,1′-biphenyl]-3-yl)-6-chloropyrimidine-e-4,5-diamine] | Yes | 27.2 | 40 | 0.691
CN1CCN(c2ccc(-c3ccc(NC(=O)C4CCOCC4)cc3)cc2Nc2ncnc(Cl)c2N)CC1 [Example 33, N-(3″-((5-amino-6-chloropyrimidin-4-yl)amino)-4″-(4-methylpiperazin-1-yl)-[1,1′-biphenyl]-4-yl)tetrahydro-2H-pyran-4-carboxamide] | Yes | 22.7 | 25.9 | 0.489
CN1CCC(C(=O)Nc2ccc(-c3ccc(N4CCN(C)CC4)c(Nc4ncnc(Cl)c4N)c3)cc2)CC1 [Example 34, N-(3″-((5-amino-6-chloropyrimidin-4-yl)amino)-4″-(4-methylpiperazin-1-yl)-[1,1′-biphenyl]-4-yl)-1-methylpiperidin-4-carboxamide] | Yes | 20.8 | 23.2 | 0.287
CN1CCN(c2ccc(-c3ccc(NC(=O)C4CCCCC4)cc3)cc2Nc2ncnc(Cl)c2N)CC1 [Example 35, N-(3″-((5-amino-6-chloropyrimidin-4-yl)amino)-4″-(4-methylpiperazin-1-yl)-[1,1′-biphenyl]-4-yl)cyclohexanecarboxamide] | Yes | 6.16 | 2.07 | 0.372
CCCC(=O)Nc1ccc(-c2ccc(N3CCN(C)CC3)c(Nc3ncnc(Cl)c3N)c2)cc1 [Example 36, N-(3″-((5-amino-6-chloropyrimidin-4-yl)amino)-4″-(4-methylpiperazin-1-yl)-[1,1′-biphenyl]-4-yl)butyramide] | Yes | 12.5 | 9.32 | 0.261
CN1CCN(C(=O)c2ccc(-c3ccc(N4CCN(C)CC4)c(Nc4ncnc(Cl)c4N)c3)c(F)c2)CC1 [Example 38, (3″-((5-amino-6-chloropyrimidin-4-yl)amino)-2-fluoro-4″-(4-methylpiperazin-1-yl)-[1,1′-biphenyl]-4-yl)(4-methylpiperazin-1-yl)methanone] | Yes | 26 | 20.8 | 0.652
CN1CCN(c2ccc(-c3cccc(N)c3)cc2Nc2ncnc(Cl)c2N)CC1 [Example 39, N-(3′-amino-4-(4-methylpiperazin-1-yl)-[1,1′-biphenyl]-3-yl)-6-chloropyrimidine-4,5-diamine] | Yes | 28.6 | 32.2 | 0.675
CN1CCN(c2ccc(-c3cccc(NC(=O)C4CCOCC4)c3)cc2Nc2ncnc(Cl)c2N)CC1 [Example 40, N-(3″-((5-amino-6-chloropyrimidin-4-yl)amino)-4″-(4-methylpiperazin-1-yl)-[1, 1′-biphenyl]-3-yl)tetrahydro-2H-pyran-4-carboxamide] | Yes | 26.2 | 28.4 | 0.328
CN1CCC(C(=O)Nc2cccc(-c3ccc(N4CCN(C)CC4)c(Nc4ncnc(Cl)c4N)c3)c2)CC1 [Example 41, N-(3″-((5-amino-6-chloropyrimidin-4-yl)amino)-4″-(4-methylpiperazin-1-yl)-[1,1′-biphenyl]-3-yl)-1-methylpiperidin-4-carboxamide] | Yes | 24.4 | 25.8 | 0.329
COC(=O)c1cn(-c2ccc(N3CCN(C)CC3)c(Nc3ncnc(Cl)c3N)c2)nn1 [Example 46, Methyl 1-(3-((5-amino-6-chloropyrimidin-4-yl)amino)-4-(4-methylpiperazin-1-yl)phenyl)-1H-1,2,3-triazole-4-carboxylate] | Yes | 11.7 | 22.4 | 0.865
CN1CCN(c2ccc(-n3cc(C(=O)N4CCOCC4)nn3)cc2Nc2ncnc(Cl)c2N)CC1 [Example 47, (1-(3-((5-amino-6-chloropyrimidin-4-yl)amino)-4-(4-methylpiperazin-1-yl)phenyl)-1H-1,2,3-triazole-4-yl)(morpholino)methanone] | Yes | 14.7 | 10.6 | 0.24
CN1CCN(c2ccc(-c3ccc(C(=O)N(C)C)cc3)c(F)c2Nc2ncnc(Cl)c2N)CC1 [Example 54, 3″-((5-amino-6-chloropyrimidin-4-yl)amino)-2′-fluoro-N,N-dimethyl-4″-(4-methylpiperazin-1-yl)-[1,1′-biphenyl]-4-carboxamide] | Yes | 16.2 | 17.5 | 0.24
CN1CCN(c2ccc(-c3ccc(C(=O)N4CCOCC4)cc3)c(F)c2Nc2ncnc(Cl)c2N)CC1 [Example 55, (3″-((5-amino-6-chloropyrimidin-4-yl)amino)-2′-fluoro-4″-(4-methylpiperazin-1-yl)-[1,1′-biphenyl]-4-yl)(morpholino)methanone] | Yes | 28.9 | 22.5 | 0.117
CN1CCN(c2ccc(-c3ccc(C(=O)NCCN4CCOCC4)cc3)c(F)c2Nc2ncnc(Cl)c2N)CC1 [Example 56] | Yes | 8.43 | 9.04 | 0.102
CN1CCN(c2ccc(-c3ccc(C(=O)NCCCN4CCOCC4)cc3)c(F)c2Nc2ncnc(Cl)c2N)CC1 [Example 57] | Yes | 17.6 | 22.3 | 0.069
CCN1CCN(C(=O)c2ccc(-c3ccc(N4CCN(C)CC4)c(Nc4ncnc(Cl)c4N)c3F)cc2)CC1 [Example 58, (3″-((5-amino-6-chloropyrimidin-4-yl)amino)-2′-fluoro-4″-(4-methylpiperazin-1-yl)-[1,1′-biphenyl]-4-yl)(4-ethylpiperazin-1-yl)methanone] | Yes | 20.3 | 19.5 | 0.112
CN1CCN(c2ccc(-c3ccc(NC(=O)C4CCOCC4)cc3)c(F)c2Nc2ncnc(Cl)c2N)CC1 [Example 59, N-(3″-((5-amino-6-chloropyrimidin-4-yl)amino)-2′-fluoro-4″-(4-methylpiperazin-1-yl)-[1,1′-biphenyl]-4-yl)tetrahydro-2H-pyran-4-carboxamide] | Yes | 31.2 | 26.4 | 0.176
CN1CCC(C(=O)Nc2ccc(-c3ccc(N4CCN(C)CC4)c(Nc4ncnc(Cl)c4N)c3F)cc2)CC1 [Example 60, N-(3″-((5-amino-6-chloropyrimidin-4-yl)amino)-2′-fluoro-4″-(4-methylpiperazin-1-yl)-[1,1′-biphenyl]-pyridin-4-yl)-1-methylpiperidin-4-carboxamide] | Yes | 22.6 | 22.7 | 0.105
CN1CCN(c2ccc(-c3ccc(NC(=O)CC4CCOCC4)cc3)c(F)c2Nc2ncnc(Cl)c2N)CC1 [Example 61] | Yes | 20.5 | 21.1 | 0.085
CC(C)C(N)C(=O)Nc1ccc(-c2ccc(N3CCN(C)CC3)c(Nc3ncnc(Cl)c3N)c2F)cc1 (stereo not drawn) [Example 62, 2-amino-N-(3″-((5-amino-6-chloropyrimidin-4-yl)amino)-2′-fluoro-4″-(4-methylpiperazin-1-yl)-[1,1′biphenylyl]-4-yl)-3-methylbutyramide] | Yes | 22 | 17.4 | 0.034
CN1CCN(c2ccc(-c3ccc(NC(=O)CN)cc3)c(F)c2Nc2ncnc(Cl)c2N)CC1 [Example 64, 2-amino-N-(3″-((5-amino-6-chloropyrimidin-4-yl)amino)-2′-fluoro-4″-(4-methylpiperazin-1-yl)-[1,1′biphenylyl]-4-yl)acetamide] | Yes | 28.6 | 20.4 | 0.033
CN1CCN(c2cc(F)c(-c3ccc(C(=O)N4CCOCC4)cc3)cc2Nc2ncnc(Cl)c2N)CC1 [Example 67, (5″-((5-amino-6-chloropyrimidin-4-yl)amino)-2′-fluoro-4″-(4-methylpiperazin-1-yl)-[1,1′-biphenyl]-4-yl)(morpholino)methanone] | Yes | 16.5 | 19.6 | 0.036
CN1CCN(c2cc(F)c(-c3ccc(C(=O)NCCN4CCOCC4)cc3)cc2Nc2ncnc(Cl)c2N)CC1 [Example 68] | Yes | 23.1 | 27.7 | 0.074
